Legend:
female albino rats [1] = assay: Anti-implantation studies of roxatidine acetate in female rats (post coital); assay type: in vivo, rat
Method: Roxatidine was screened as a post coital anti-fertility agent on different days of pregnancy i.e. day 1st, days 1st-3rd day 4th i.e. day of ([…] days 1st-5th, days 1st-7th and day 15th-20th i.e. period of organogenesis) post coitum. The aim of the study was to determine the minimum possible dose of drug showing anti implantation activity and the specific days of gestation period when the activity is maximum studies were carried out in order to determine the possible mechanism of action of the drug. Further ELISA was conducted to assess the effects of roxatidine on the serum level of estrogen and progesterone respectively.
Daily vaginal smears of the female albino rats were taken and the regular periodicity of the estrus cycle was checked.
The animals were held, ventral side up and a drop of 0.9% saline was inserted into the vagina with the help of a Pasteur pipette, carefully, without damaging the vaginal wall to avoid false positive smears. The drop of normal saline was aspirated and replaced several times with the vaginal fluid, withdrawn and transferred to a microscopic slide. A coverslip was placed carefully on the smear avoiding the air bubble. The slide was then observed under a compound microscope (magnification-45×) and the stage of estrus cycle was determined.
Female rats in proestrus or estrus stage were housed with mature male rats (in the ratio 3 females:1 male). Each female was examined for the presence of spermatozoa in the early morning. The day on which this sign of mating is seen is taken as day 1 of pregnancy. The female was then separated and caged singly. Roxatidine was administered orally to the animal once daily on specific days of pregnancy at different concentrations.
Pregnant rats were divided into 5 groups of 10 animals each. To group I, which served as control, a constant volume of distilled water was administered orally with the help of a catheter. The drug namely, roxatidine was administered at doses of 2.5, 10, 15 & 20 mg/kg body weight orally, on specific days of pregnancy.
Fifty albino rats were divided into groups of 10 animals each. Group I served as control and received distilled water. Group II to V received Roxatidine acetate at doses of 2.5,10,15 & 20 mg/kg body weight, orally respectively on day 1 postcoital with the help of a catheter.
On day 10 of pregnancy the animal was laprotomized and the number of implants present in both the uterine horns as well as the number of corpora lutea on each ovary was counted. The animals were allowed to complete the gestation period (usually 21-23 days) and the number of litters delivered, if any were counted In this case, 2 litters were delivered.
Fifty albino rats were divided into groups of 10 animals each. Group I served as control and received distilled water. Group II to V received Roxatidine acetate at doses of 2.5,10,15 & 20 mg/kg body weight, orally respectively on day 1-3 postcoital with the help of a catheter.
On day 10 of pregnancy the animal was laprotomized and the number of implants present in both the uterine horns as well as the number of corpora lutea on each ovary was counted.
Fifty albino rats were divided into groups of 10 animals each. Group I served as control and received distilled water. Group II to V received Roxatidine acetate at doses of 2.5,10,15 & 20 mg/kg body weight, orally respectively on day 4 postcoital with the help of a catheter.
On day 10 of pregnancy the animal was laprotomized and the number of implants present in both the uterine horns as well as the number of corpora lutea on each ovary was counted. The animals were allowed to complete the gestation period (usually 21-23 days) at the end of which 3 litters were found.
Fifty albino rats were divided into groups of 10 animals each. Group I served as control and received distilled water. Group II to V received Roxatidine acetate at doses of 2.5, 10, 15 & 20 mg/kg body weight, orally respectively on day 1-7 postcoital with the help of a catheter. […]

female albino rats [2] = assay: Preovulatory effects of roxatidine acetate in female albino rats; assay type: in vivo, rat; conditions: 2.5, 10, 15 & 20 mg/kg for 15 consecutive days before mating; dose group not stated
Method: Animals with normal estrus cycle were divided into […] with 10 animals in each group. Group I served as control and received distilled water orally. Animals in Group II, II, IV & V were administered roxatidine acetate at the doses of 2.5, 10, 15, & 20 mg/kg body weight respectively, for 15 consecutive days. During this period daily vaginal smears were taken to observe the regularity of the estrus cycle.
The females in all the groups were then paired with males of proven fertility. Daily vaginal smears were taken until the animals successfully mated. This was indicated by the presence of spermatozoa in the vaginal smears and this was taken as day 1 of pregnancy. On day 10 each animal was laprotomized and the no. of implants/resorption sites and the no. of corpora lutea were counted. The number of litters delivered at the end of the gestation period were 2.

[3] = Solubility in water (preparation of drug solution); assay type: physicochemical; conditions: distilled water
pregnant female rats = conditions: cited from earlier work

Row | Structure (SMILES) | number of litters found at end of gestation period (female albino rats [1]; 2.5, 10, 15 & 20 mg/kg orally on day 1-3 postcoital, gestation 21-23 days) | number of litters found at end of gestation period (female albino rats [1]; 2.5, 10, 15 & 20 mg/kg orally on day 1-5 postcoital, gestation 21-23 days) | number of litters found at end of gestation period (female albino rats [1]; 2.5, 10, 15 & 20 mg/kg orally on day 1-7 postcoital, gestation 21-23 days) | number of litters delivered at end of gestation period (female albino rats [1]; 2.5, 10, 15 & 20 mg/kg orally on day 1 postcoital, gestation 21-23 days, dose group not stated) | number of litters found at end of gestation period (female albino rats [1]; 2.5, 10, 15 & 20 mg/kg orally on day 4 postcoital, gestation 21-23 days, dose group not stated) | number of litters seen at end of gestation period (female albino rats [1]; 2.5, 10, 15 & 20 mg/kg orally on day 15-20 postcoital, gestation 21-23 days, dose group not stated) | inhibition of implantation (female albino rats [1]; administered in animal models) | number of litters delivered at the end of the gestation period (female albino rats [2]) | solubility in water [3] | anti-implantation effects (pregnant female rats; oral, daily for 1-7 days post coitum, pregnant female rats) | oestrogenic/anti-oestrogenic activity (pregnant female rats; rats)
1 | CC(=O)OCC(=O)NCCCOc1cccc(CN2CCCCC2)c1 [Roxatidine acetate] | no litters were found | no litters were found | no litters were found | 2 | 3 | 2 | effective in inhibiting implantation | 2 | readily and completely soluble in water |  | 
2 | CN/C(=N/CCSCc1nc[nH]c1C)NC#N [cimetidine] |  |  |  |  |  |  |  |  |  | exhibited anti-implantation effects | did not possess oestrogenic/anti-oestrogenic activity

Source: patent US20030212105A1, “Novel anti-fertility agent” (priority 2002, published 2003)
